The text below walks through data of patent publication US8207172B2 (Bayer Intellectual Property GmbH, priority 2004, dated 2012).

Assay [1] concerns A431 cells (human epidermoid carcinoma). Kind of assay: In vitro tumor cell proliferation assay (Cell Titer-Glo luminescent cell viability), A431. Type of assay: cell-based. The note with it: A-431, 72 h, 72 hours of drug exposure, ATP luminescence readout, read-out: IC50, anti-proliferative activity (inhibition of cell proliferation). The essentials: (§1)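 CellTiter-Glo luminescence (ATP content of metabolically active cells) after 72 h compound exposure at 37° C gave IC50s.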
(In general: Cellular ATP, detected with luciferase, serves as a proxy for viable cell number.)

The test system of assay [2] is BT474 (human breast carcinoma). Kind of assay: In vitro tumor cell proliferation assay (Cell Titer-Glo luminescent cell viability), BT474. It is filed as cell-based. The note with it: BT-474, 72 h, BT474 cells, 72 hours of drug exposure, ATP luminescence readout, read-out: IC50, anti-proliferative activity (inhibition of cell proliferation). The essentials:
as §1

Structures can show the parent of a compound that is named as a salt.

For the compound `OCCn1cc2c(n1)CCc1c-2sc2ncnc(Nc3ccc(OCc4ccccc4)c(Cl)c3)c12` [Example 124, 2-(6-{[4-(benzyloxy)-3-chlorophenyl]amino}-4,5-dihydro-2H-pyrimido[5′,4′:4,5]thieno[2,3-e]indazol-2-yl)ethanol], the IC50 is at most 50 µM in assay [1] and at most 1 µM in assay [2].

On to `CS(=O)(=O)OCCn1cc2c(n1)CCc1c-2sc2ncnc(Nc3ccc(OCc4ccccc4)c(Cl)c3)c12` [Example 125, 2-(6-{[4-(benzyloxy)-3-chlorophenyl]amino}-4,5-dihydro-2H-pyrimido[5′,4′:4,5]thieno[2,3-e]indazol-2-yl)ethyl methanesulfonate], for which the IC50 in assay [1] is at most 50 µM; in assay [2] it was at most 1 µM.

On to `Clc1cc(Nc2ncnc3sc4c(c23)CCc2nn(CCN3CCOCC3)cc2-4)ccc1OCc1ccccc1` [Example 126, N-[4-(benzyloxy)-3-chlorophenyl]-2-(2-morpholin-4-ylethyl)-4,5-dihydro-2H-pyrimido[5′,4′:4,5]thieno[2,3-e]indazol-6-amine], for which the IC50 in assay [1] is at most 50 µM; in assay [2], at most 1 µM.

In the case of `Clc1cc(Nc2ncnc3sc4c(c23)CCc2n[nH]cc2-4)ccc1OCc1ccccc1` [Example 127, N-[4-(benzyloxy)-3-chlorophenyl]-4,5-dihydro-2H-pyrimido[5′,4′:4,5]thieno[2,3-e]indazol-6-amine], the IC50 is at most 5 µM in assay [1] and at most 1 µM in assay [2].

Turning to `C=CCn1cc2c(n1)CCc1c-2sc2ncnc(Nc3ccc(OCc4cccc(F)c4)c(Cl)c3)c12` [Example 128, 2-allyl-N-{3-chloro-4-[(3-fluorobenzyl)oxy]phenyl}-4,5-dihydro-2H-pyrimido[5′,4′:4,5]thieno[2,3-e]indazol-6-amine trifluoroacetate (Salt)], the IC50 in assay [1] is at most 50 µM; in assay [2] it was at most 1 µM.

For the compound `C=CCn1ncc2c1CCc1c-2sc2ncnc(Nc3ccc(OCc4cccc(F)c4)c(Cl)c3)c12` [Example 129, 3-allyl-N-{3-chloro-4-[(3-fluorobenzyl)oxy]phenyl}-4,5-dihydro-3H-pyrimido[5′,4′:4,5]thieno[2,3-e]indazol-6-amine], the IC50 was at most 50 µM in assay [1] and at most 1 µM in assay [2].

Consider `CCCn1cc2c(n1)CCc1c-2sc2ncnc(Nc3ccc(OCc4cccc(F)c4)c(Cl)c3)c12` [Example 130, N-{3-chloro-4-[(3-fluorobenzyl)oxy]phenyl}-2-propyl-4,5-dihydro-2H-pyrimido[5′,4′:4,5]thieno[2,3-e]indazol-6-amine trifluoroacetate], for which the IC50 is at most 50 µM in assay [1] and at most 5 µM in assay [2].

With `CCCn1ncc2c1CCc1c-2sc2ncnc(Nc3ccc(OCc4cccc(F)c4)c(Cl)c3)c12` [Example 131, N-{3-chloro-4-[(3-fluorobenzyl)oxy]phenyl}-3-propyl-4,5-dihydro-3H-pyrimido[5′,4′:4,5]thieno[2,3-e]indazol-6-amine trifluoroacetate], the IC50 in assay [1] is at most 50 µM; in assay [2], at most 1 µM.

As for `OCC(O)Cn1ncc2c1CCc1c-2sc2ncnc(Nc3ccc(OCc4cccc(F)c4)c(Cl)c3)c12` (stereo not shown) [Example 132, 3-[6-({3-chloro-4-[(3-fluorobenzyl)oxy]phenyl}amino)-4,5-dihydro-3Hpyrimido[5′,4′:4,5]thieno[2,3-e]indazol-3-yl]propane-1,2-diol], the figures for the IC50 in assay [1] and in assay [2] were at most 5 µM and at most 1 µM, respectively.

`COCCN1CCN(C[C@@H](O)Cn2cc3c(n2)CCc2c-3sc3ncnc(Nc4ccc(OCc5cccc(F)c5)c(Cl)c4)c23)CC1` [Example 133, (2R)-1-[6-({3-chloro-4-[(3-fluorobenzyl)oxy]phenyl}amino)-4,5-dihydro-2H-pyrimido[5′,4′:4,5]thieno[2,3-e]indazol-2-yl]-3-[4-(2-methoxyethyl)piperazin-1-yl]propan-2-ol]: the IC50 in assay [1] is at most 50 µM; in assay [2], at most 1 µM.

Take `COCCN1CCN(C[C@@H](O)Cn2ncc3c2CCc2c-3sc3ncnc(Nc4ccc(OCc5cccc(F)c5)c(Cl)c4)c23)CC1` [Example 134, (2R)-1-[6-({3-chloro-4-[(3-fluorobenzyl)oxy]phenyl}amino)-4,5-dihydro-3H-pyrimido[5′,4′:4,5]thieno[2,3-e]indazol-3-yl]-3-[4-(2-methoxyethyl)piperazin-1-yl]propan-2-ol]: the results for the IC50 in assay [1] and in assay [2] were at most 50 µM and at most 1 µM, respectively.

For `OC(CN1CCOCC1)Cn1cc2c(n1)CCc1c-2sc2ncnc(Nc3ccc(OCc4cccc(F)c4)c(Cl)c3)c12` (stereo not shown) [Example 135, 1-[6-({3-chloro-4-[(3-fluorobenzyl)oxy]phenyl}amino)-4,5-dihydro-2H-pyrimido[5′,4′:4,5]thieno[2,3-e]indazol-2-yl]-3-morpholin-4-ylpropan-2-ol], the IC50 in assay [1] was at most 50 µM; in assay [2] it was at most 1 µM.

In the case of `CN1CCN(C[C@@H](O)Cn2cc3c(n2)CCc2c-3sc3ncnc(Nc4ccc(OCc5cccc(F)c5)c(Cl)c4)c23)CC1` [Example 136, (2R)-1-[6-({3-chloro-4-[(3-fluorobenzyl)oxy]phenyl}amino)-4,5-dihydro-2H-pyrimido[5′,4′:4,5]thieno[2,3-e]indazol-2-yl]-3-(4-methylpiperazin-1-yl)propan-2-ol], the IC50 in assay [1] is at most 50 µM; in assay [2], at most 1 µM.

With `COCCN(CCOC)C[C@@H](O)Cn1cc2c(n1)CCc1c-2sc2ncnc(Nc3ccc(OCc4cccc(F)c4)c(Cl)c3)c12` [Example 138, (2R)-1-[bis(2-methoxyethyl)amino]-3-[6-({3-chloro-4-[(3-fluorobenzyl)oxy]phenyl}amino)-4,5-dihydro-2H-pyrimido[5′,4′:4,5]thieno[2,3-e]indazol-2-yl]propan-2-ol], the IC50 in assay [1] is at most 50 µM; in assay [2], at most 1 µM.

Consider `O[C@H](CN1CCSCC1)Cn1cc2c(n1)CCc1c-2sc2ncnc(Nc3ccc(OCc4cccc(F)c4)c(Cl)c3)c12` [Example 139, (2R)-1-[6-({3-chloro-4-[(3-fluorobenzyl)oxy]phenyl}amino)-4,5-dihydro-2H-pyrimido[5′,4′:4,5]thieno[2,3-e]indazol-2-yl]-3-thiomorpholin-4-ylpropan-2-ol], for which the IC50 in assay [1] is at most 50 µM; in assay [2], at most 1 µM.

As for `COC[C@@H]1CCCN1C[C@@H](O)Cn1cc2c(n1)CCc1c-2sc2ncnc(Nc3ccc(OCc4cccc(F)c4)c(Cl)c3)c12` [Example 140, (2R)-1-[6-({3-chloro-4-[(3-fluorobenzyl)oxy]phenyl}amino)-4,5-dihydro-2H-pyrimido[5′,4′:4,5]thienol[2,3-e]indazol-2-yl]-3-[(2S)-2-(methoxymethyl)pyrrolidin-1-yl]propan-2-ol], the IC50 was at most 50 µM in assay [1] and at most 1 µM in assay [2].

Consider `O[C@H](Cn1ccnc1)Cn1cc2c(n1)CCc1c-2sc2ncnc(Nc3ccc(OCc4cccc(F)c4)c(Cl)c3)c12` [Example 141, (2R)-1-[6-({3-chloro-4-[(3-fluorobenzyl)oxy]phenyl}amino)-4,5-dihydro-2H-pyrimido[5′,4′:4,5]thieno[2,3-e]indazol-2-yl]-3-(1H-imidazol-1-yl)propan-2-ol trifluoroacetate (salt)], for which the values for the IC50 in assay [1] and in assay [2] were at most 50 µM and at most 1 µM, respectively.

Regarding `O[C@H](CNCCN1CCOCC1)Cn1cc2c(n1)CCc1c-2sc2ncnc(Nc3ccc(OCc4cccc(F)c4)c(Cl)c3)c12` [Example 142, (2R)-1-[6-({3-chloro-4-[(3-fluorobenzyl)oxy]phenyl}amino)-4,5-dihydro-2H-pyrimido[5′,4′:4,5]thieno[2,3-e]indazol-2-yl]-3-[(2-morpholin-4-ylethyl)amino]propan-2-ol], the IC50 is at most 50 µM in assay [1] and at most 1 µM in assay [2].

On to `OCCN(CCO)C[C@@H](O)Cn1cc2c(n1)CCc1c-2sc2ncnc(Nc3ccc(OCc4cccc(F)c4)c(Cl)c3)c12` [Example 144, (2R)-1-[bis(2-hydroxyethyl)amino]-3-[6-({3-chloro-4-[(3-fluorobenzyl)oxy]phenyl}amino)-4,5-dihydro-2H-pyrimido[5′,4′:4,5]thieno[2,3-e]indazol-2-yl]propan-2-ol], for which the IC50 in assay [1] is at most 50 µM; in assay [2] it was at most 1 µM.

With `COCCNC[C@@H](O)Cn1cc2c(n1)CCc1c-2sc2ncnc(Nc3ccc(OCc4cccc(F)c4)c(Cl)c3)c12` [Example 146, (2R)-1-[6-({3-chloro-4-[(3-fluorobenzyl)oxy]phenyl}amino)-4,5-dihydro-2H-pyrimido[5′,4′:4,5]thieno[2,3-e]indazol-2-yl]-3-[(2-methoxyethyl)amino]propan-2-ol], the IC50 in assay [1] is at most 50 µM; in assay [2], at most 1 µM.

Take `O[C@H](CN1CCCCC1)Cn1cc2c(n1)CCc1c-2sc2ncnc(Nc3ccc(OCc4cccc(F)c4)c(Cl)c3)c12` [Example 148, (2R)-1-[6-({3-chloro-4-[(3-fluorobenzyl)oxy]phenyl}amino)-4,5-dihydro-2H-pyrimido[5′,4′:4,5]thieno[2,3-e]indazol-2-yl]-3-piperidin-1-ylpropan-2-ol trifluoroacetate (salt)]: the IC50 in assay [1] was at most 50 µM; in assay [2] it was at most 1 µM.

Consider `O[C@H](CN1CCCC1)Cn1cc2c(n1)CCc1c-2sc2ncnc(Nc3ccc(OCc4cccc(F)c4)c(Cl)c3)c12` [Example 149, (2R)-1-[6-({3-chloro-4-[(3-fluorobenzyl)oxy]phenyl}amino)-4,5-dihydro-2H-pyrimido[5′,4′:4,5]thieno[2,3-e]indazol-2-yl]-3-pyrrolidin-1-ylpropan-2-ol trifluoroacetate (salt)], for which the IC50 in assay [1] is at most 50 µM; in assay [2], at most 1 µM.

For the compound `O[C@H](CN1CC[C@H](O)C1)Cn1cc2c(n1)CCc1c-2sc2ncnc(Nc3ccc(OCc4cccc(F)c4)c(Cl)c3)c12` [Example 150, (3S)-1-{(2R)-3-[6-({3-chloro-4-[(3-fluorobenzyl)oxy]phenyl}amino)-4,5-dihydro-2H-pyrimido[5′,4′:4,5]thieno[2,3-e]indazol-2-yl]-2-hydroxypropyl}pyrrolidin-3-ol trifluoroacetate (salt)], the IC50 was at most 50 µM in assay [1] and at most 1 µM in assay [2].
